Assays:
Assay in all cases: relative viability (nuclei count vs DMSO), 5 days (fraction); higher = more cells survive
[1] = compound: CC1=NN=C(O1)C2=NN=C(C=C2)N3CCC(CC3)OC4=C(C=CC(=C4)F)Cl + C[C@]1(O)C[C@@H](c2nc(-c3ccc4ccc(-c5ccccc5)nc4c3)c3c(N)nccn32)C1 [Linsitinib] (partner 1 µM)
How it was run: (§1)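 Dosing by pin tool came one day after lung cancer cell lines were seeded in 1536-well plates, using either one drug or a fixed anchor-drug dose plus five library-drug doses (not always all listed) in √10 steps. After 5 days, nuclei were counted on 4× images. Relative viability is treated-well nuclei count divided by vehicle-well nuclei count, and values are medians of duplicate plates.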

[2] = compound: CC(C)C[C@@H](C(=O)N[C@H](C(=O)OC1CCCC1)c1ccccc1)[C@H](O)C(=O)NO [Tosedostat] + N=C(N)NC(=N)NCCc1ccccc1 [Phenformin] (partner 250 µM)
How it was run: as §1

[3] = compound: CC(C)C[C@@H](C(=O)N[C@H](C(=O)OC1CCCC1)c1ccccc1)[C@H](O)C(=O)NO [Tosedostat] + Nc1nc2[nH]cc(CCc3ccc(C(=O)N[C@@H](CCC(=O)O)C(=O)O)cc3)c2c(=O)[nH]1 [Pemetrexed] (partner 0.2 µM)
How it was run: as §1

[4] = compound: CC(C)C[C@@H](C(=O)N[C@H](C(=O)OC1CCCC1)c1ccccc1)[C@H](O)C(=O)NO [Tosedostat] + Nc1ncn([C@H]2C[C@H](O)[C@@H](CO)O2)c(=O)n1 [Decitabine] (partner 2 µM)
How it was run: as §1

UMC-11
relative viability ([1]; first compound 0.253 µM): 0.758 | relative viability ([1]; first compound 0.8 µM): 0.732 | relative viability ([1]; first compound 2.53 µM): 0.714 | relative viability ([1]; first compound 8 µM): 0.744 | relative viability ([2]; first compound 0.02 µM): 0.353 | relative viability ([2]; first compound 0.06325 µM): 0.328 | relative viability ([2]; first compound 0.2 µM): 0.298 | relative viability ([2]; first compound 0.6325 µM): 0.282 | relative viability ([2]; first compound 2 µM): 0.278 | relative viability ([3]; first compound 0.02 µM): 0.86 | relative viability ([3]; first compound 0.06325 µM): 0.723 | relative viability ([3]; first compound 0.2 µM): 0.85 | relative viability ([3]; first compound 0.6325 µM): 0.84 | relative viability ([3]; first compound 2 µM): 0.94 | relative viability ([4]; first compound 0.02 µM): 0.687 | relative viability ([4]; first compound 0.06325 µM): 0.575 | relative viability ([4]; first compound 0.2 µM): 0.801 | relative viability ([4]; first compound 0.6325 µM): 0.568 | relative viability ([4]; first compound 2 µM): 0.587
